Data taken from patent US20070021419A1, “2-Aminophenyl-4-phenylpyrimidines as kinase inhibitors” (Cyclacel Limited, priority 2003, published 2007).

Assays:
PLK-1 = PLK-1 (Homo sapiens, UniProt P53350); assay: Kinase assay, radioactive phosphate incorporation, PLK-1; type: biochemical; conditions: 100 μM ATP, 30° C.; read-out: Kinase inhibition IC50 PLK-1
Procedure: (§1) The compounds from the examples above were investigated for their ability to inhibit the enzymatic activity of various protein kinases. This was achieved by measurement of incorporation of radioactive phosphate from ATP into appropriate polypeptide substrates. Recombinant protein kinases and kinase complexes were produced or obtained commercially. Assays were performed using 96-well plates and appropriate assay buffers (typically 25 mM β-glycerophosphate, 20 mM MOPS, 5 MM EGTA, 1 mM DTT, 1 mM Na3VO3, pH 7.4), into which were added 2-4 μg of active enzyme with appropriate substrates. The reactions were initiated by addition of Mg/ATP mix (15 mM MgCl2+100 μM ATP with 30-50 kBq per well of [γ-^32P]-ATP) and mixtures incubated as required at 30° C. Reactions were stopped on ice, followed by filtration through p81 filterplates or GF/C filterplates (Whatman Polyfiltronics, Kent, UK). After washing 3 times with 75 mM aq orthophosphoric acid, plates were dried, scintillant added and incorporated radioactivity measured in a scintillation counter (TopCount, Packard Instruments, Pangbourne, Berks, UK). Compounds for kinase assay were made up as 10 mM stocks in DMSO and diluted into 10% DMSO in assay buffer.

Saos-2 = assay: 72-h MTT cytotoxicity assay, Saos-2; type: cell-based; conditions: Homo sapiens, read-out: 72-h MTT IC50 Saos-2, Saos-2 cell line
Outline: (§2)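 Cells were seeded by doubling time and left overnight, then given a 1/3 DMSO dilution series in triplicate for 72 h at 37° C. MTT (5 mg/mL stock) was added for 4 h in the dark. Formazan was dissolved in DMSO for the read-out.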

HT29 = assay: 72-h MTT cytotoxicity assay, HT29; type: cell-based; conditions: Homo sapiens, HT-29, read-out: 72-h MTT IC50 HT29, HT29 cell line
Outline: as §2

[1] = test system: transformed human cell lines (A549, HT29, Saos-2); assay: 72-h MTT cytotoxicity assay, average of cell lines; type: cell-based; conditions: read-out: 72-h MTT IC50 Average, average of A549, HT29, Saos-2
Outline: as §2

A549 = assay: 72-h MTT cytotoxicity assay, A549; type: cell-based; conditions: Homo sapiens, read-out: 72-h MTT IC50 A549, A549 cell line
Outline: as §2

CDK2/cyclin E = CDK2/cyclin E (Homo sapiens, UniProt P24941); assay: Kinase assay, radioactive phosphate incorporation, CDK2/cyclin E; type: biochemical; conditions: 100 μM ATP, 30° C.; read-out: Kinase inhibition IC50 CDK2/cyclin E
Outline: (§3)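 Recombinant kinase complexes (2-4 μg) with polypeptide substrate were run in pH 7.4 β-glycerophosphate/MOPS buffer, started with 15 mM MgCl2 plus 100 μM ATP including [γ-^32P]-ATP, and incubated at 30° C. Substrate-incorporated ^32P was captured on filter plates, acid-washed and scintillation-counted. Compounds were diluted from DMSO stocks into 10% DMSO buffer.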

CDK1/cyclin B = CDK1/cyclin B (Homo sapiens, UniProt P06493); assay: Kinase assay, radioactive phosphate incorporation, CDK1/cyclin B; type: biochemical; conditions: 100 μM ATP, 30° C.; read-out: Kinase inhibition IC50 CDK1/cyclin B
Sequence of CDK1/cyclin B (P06493 whole entry, species assumed): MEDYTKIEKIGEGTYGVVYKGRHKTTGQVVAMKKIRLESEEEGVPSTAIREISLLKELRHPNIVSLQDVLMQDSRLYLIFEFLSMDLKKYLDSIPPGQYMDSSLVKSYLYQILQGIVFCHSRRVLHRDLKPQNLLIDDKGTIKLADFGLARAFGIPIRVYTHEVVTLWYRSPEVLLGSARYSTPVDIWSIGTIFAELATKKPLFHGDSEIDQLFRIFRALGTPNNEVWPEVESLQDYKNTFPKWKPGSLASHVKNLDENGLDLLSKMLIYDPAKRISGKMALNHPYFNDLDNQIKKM
Sequence of CDK1/cyclin B (P14635 whole entry partner, species assumed): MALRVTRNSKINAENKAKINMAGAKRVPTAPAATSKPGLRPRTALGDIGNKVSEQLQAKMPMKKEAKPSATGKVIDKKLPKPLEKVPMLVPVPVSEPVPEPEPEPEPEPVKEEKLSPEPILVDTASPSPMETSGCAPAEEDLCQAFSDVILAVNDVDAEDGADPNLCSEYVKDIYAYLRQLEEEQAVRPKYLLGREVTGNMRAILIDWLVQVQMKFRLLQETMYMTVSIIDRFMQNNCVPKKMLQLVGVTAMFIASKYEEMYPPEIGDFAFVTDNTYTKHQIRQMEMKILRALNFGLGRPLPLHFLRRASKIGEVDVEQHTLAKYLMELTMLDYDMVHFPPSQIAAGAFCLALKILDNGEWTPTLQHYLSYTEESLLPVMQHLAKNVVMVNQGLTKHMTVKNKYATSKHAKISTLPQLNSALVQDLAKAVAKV
Outline: as §3

CDK9/cyclin T1 = CDK9/cyclin T1 (Homo sapiens, UniProt P50750); assay: Kinase assay, radioactive phosphate incorporation, CDK9/cyclin T1; type: biochemical; conditions: 100 μM ATP, 30° C.; read-out: Kinase inhibition IC50 CDK9/cyclin T1
Sequence of CDK9/cyclin T1 (P50750 whole entry, species assumed): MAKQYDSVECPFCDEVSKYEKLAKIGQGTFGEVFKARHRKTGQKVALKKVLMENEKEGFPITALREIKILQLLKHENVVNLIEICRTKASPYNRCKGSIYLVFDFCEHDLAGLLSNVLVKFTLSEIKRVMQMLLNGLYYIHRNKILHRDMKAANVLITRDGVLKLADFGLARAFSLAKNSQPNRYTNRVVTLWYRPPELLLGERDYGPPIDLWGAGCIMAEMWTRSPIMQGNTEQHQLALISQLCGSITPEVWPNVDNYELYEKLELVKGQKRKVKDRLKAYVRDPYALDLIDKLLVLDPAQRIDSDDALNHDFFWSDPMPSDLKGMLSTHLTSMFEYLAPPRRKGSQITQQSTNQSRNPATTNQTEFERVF
Sequence of CDK9/cyclin T1 (O60563 whole entry partner, species assumed): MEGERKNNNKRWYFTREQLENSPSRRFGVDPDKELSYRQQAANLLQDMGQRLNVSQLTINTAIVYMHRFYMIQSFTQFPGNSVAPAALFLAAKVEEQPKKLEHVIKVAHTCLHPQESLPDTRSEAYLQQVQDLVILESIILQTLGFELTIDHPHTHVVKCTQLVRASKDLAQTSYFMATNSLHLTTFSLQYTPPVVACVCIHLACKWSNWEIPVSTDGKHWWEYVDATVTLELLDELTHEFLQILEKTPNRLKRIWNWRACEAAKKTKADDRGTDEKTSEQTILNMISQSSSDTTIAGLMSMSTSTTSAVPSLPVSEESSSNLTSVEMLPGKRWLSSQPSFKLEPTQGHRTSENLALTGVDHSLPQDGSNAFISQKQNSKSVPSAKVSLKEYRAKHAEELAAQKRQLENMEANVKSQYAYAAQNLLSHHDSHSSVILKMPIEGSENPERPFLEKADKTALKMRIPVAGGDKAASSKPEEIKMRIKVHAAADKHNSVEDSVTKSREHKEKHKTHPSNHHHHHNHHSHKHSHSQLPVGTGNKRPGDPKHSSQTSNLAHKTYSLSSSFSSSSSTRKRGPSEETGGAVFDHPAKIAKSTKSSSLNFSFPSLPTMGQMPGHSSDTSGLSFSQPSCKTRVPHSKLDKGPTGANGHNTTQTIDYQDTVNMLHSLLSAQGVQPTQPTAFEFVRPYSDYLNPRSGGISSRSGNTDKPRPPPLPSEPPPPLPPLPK
Outline: as §3

CDK7/cyclin H = CDK7/cyclin H (Homo sapiens, UniProt P50613); assay: Kinase assay, radioactive phosphate incorporation, CDK7/cyclin H; type: biochemical; conditions: 100 μM ATP, 30° C.; read-out: Kinase inhibition IC50 CDK7/cyclin H
Sequence of CDK7/cyclin H (P50613 whole entry, species assumed): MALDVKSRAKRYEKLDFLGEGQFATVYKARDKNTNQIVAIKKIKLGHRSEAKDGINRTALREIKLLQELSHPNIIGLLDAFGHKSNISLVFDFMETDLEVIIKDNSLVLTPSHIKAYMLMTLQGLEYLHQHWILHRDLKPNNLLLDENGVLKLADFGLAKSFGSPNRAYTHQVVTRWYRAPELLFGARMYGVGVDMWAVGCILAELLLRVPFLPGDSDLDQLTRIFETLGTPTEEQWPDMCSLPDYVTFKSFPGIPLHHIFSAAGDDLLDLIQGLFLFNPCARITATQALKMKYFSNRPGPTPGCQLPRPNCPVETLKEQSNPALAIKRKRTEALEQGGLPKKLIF
Sequence of CDK7/cyclin H (P51946 whole entry partner, species assumed): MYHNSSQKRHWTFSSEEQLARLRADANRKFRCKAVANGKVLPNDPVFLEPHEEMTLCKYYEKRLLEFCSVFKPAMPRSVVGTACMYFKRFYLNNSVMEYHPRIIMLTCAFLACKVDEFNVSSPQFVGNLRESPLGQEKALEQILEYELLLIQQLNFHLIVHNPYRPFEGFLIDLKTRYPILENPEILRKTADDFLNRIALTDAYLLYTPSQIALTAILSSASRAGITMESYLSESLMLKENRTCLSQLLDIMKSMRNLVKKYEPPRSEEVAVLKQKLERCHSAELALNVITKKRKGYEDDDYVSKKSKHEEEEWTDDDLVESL
Outline: as §3

CDK2/cyclin A = CDK2/cyclin A (Homo sapiens, UniProt P24941); assay: Kinase assay, radioactive phosphate incorporation, CDK2/cyclin A; type: biochemical; conditions: 100 μM ATP, 30° C.; read-out: Kinase inhibition IC50 CDK2/cyclin A
Outline: as §3

Aurora-A = molecular target: T1, Aurora-A (Homo sapiens, UniProt O14965); assay: Kinase assay, radioactive phosphate incorporation, Aurora-A; type: biochemical; conditions: 100 μM ATP, 30° C.; read-out: Kinase inhibition IC50 Aurora-A
T1 sequence (O14965 1-403): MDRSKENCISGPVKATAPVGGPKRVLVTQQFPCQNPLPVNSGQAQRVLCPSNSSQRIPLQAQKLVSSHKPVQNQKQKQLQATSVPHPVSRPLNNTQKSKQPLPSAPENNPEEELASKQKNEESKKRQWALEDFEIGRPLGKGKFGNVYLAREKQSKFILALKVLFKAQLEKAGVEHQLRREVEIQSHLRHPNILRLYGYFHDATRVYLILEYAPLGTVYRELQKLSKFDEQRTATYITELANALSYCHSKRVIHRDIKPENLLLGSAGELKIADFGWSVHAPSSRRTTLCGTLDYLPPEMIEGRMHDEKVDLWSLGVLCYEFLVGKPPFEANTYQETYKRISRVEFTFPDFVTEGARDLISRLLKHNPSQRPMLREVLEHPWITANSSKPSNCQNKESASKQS
Procedure: as §1

GSK3β = GSK3β (Homo sapiens, UniProt P49841); assay: Kinase assay, radioactive phosphate incorporation, GSK3β; type: biochemical; conditions: 100 μM ATP, 30° C.; read-out: Kinase inhibition IC50 GSK3β
Sequence of GSK3β (P49841 whole entry, species assumed): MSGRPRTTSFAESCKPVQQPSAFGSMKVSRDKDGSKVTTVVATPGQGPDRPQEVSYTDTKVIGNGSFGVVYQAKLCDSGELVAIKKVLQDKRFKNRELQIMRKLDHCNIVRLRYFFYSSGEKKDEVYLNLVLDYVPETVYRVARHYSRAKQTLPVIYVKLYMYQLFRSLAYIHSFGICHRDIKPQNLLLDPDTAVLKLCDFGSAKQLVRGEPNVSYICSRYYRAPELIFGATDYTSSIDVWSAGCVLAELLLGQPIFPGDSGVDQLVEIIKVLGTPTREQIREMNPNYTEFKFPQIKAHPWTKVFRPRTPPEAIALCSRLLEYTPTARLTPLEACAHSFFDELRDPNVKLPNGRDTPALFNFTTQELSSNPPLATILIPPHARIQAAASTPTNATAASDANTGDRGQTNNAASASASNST
Outline: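 Inhibition is measured as reduced transfer of radioactive phosphate to a polypeptide substrate by 2-4 μg of recombinant enzyme. Mixtures with Mg/ATP (100 μM ATP, 15 mM MgCl2, [γ-32P]-ATP) in pH 7.4 MOPS-based buffer incubate at 30° C, are stopped on ice, filtered and counted.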

CDK4/cyclin D1 = CDK4/cyclin D1 (Homo sapiens, UniProt P11802); assay: Kinase assay, radioactive phosphate incorporation, CDK4/cyclin D1; type: biochemical; conditions: 100 μM ATP, 30° C.; read-out: Kinase inhibition IC50 CDK4/cyclin D1
Sequence of CDK4/cyclin D1 (P11802 whole entry, species assumed): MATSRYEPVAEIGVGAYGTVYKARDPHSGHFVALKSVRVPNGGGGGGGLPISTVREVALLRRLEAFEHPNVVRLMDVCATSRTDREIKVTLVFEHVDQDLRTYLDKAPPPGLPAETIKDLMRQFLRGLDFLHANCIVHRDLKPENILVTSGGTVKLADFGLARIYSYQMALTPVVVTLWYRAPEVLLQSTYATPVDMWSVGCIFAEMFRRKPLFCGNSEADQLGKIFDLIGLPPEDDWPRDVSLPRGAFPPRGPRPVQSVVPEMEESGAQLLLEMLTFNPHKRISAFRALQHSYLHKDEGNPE
Sequence of CDK4/cyclin D1 (P24385 whole entry partner, species assumed): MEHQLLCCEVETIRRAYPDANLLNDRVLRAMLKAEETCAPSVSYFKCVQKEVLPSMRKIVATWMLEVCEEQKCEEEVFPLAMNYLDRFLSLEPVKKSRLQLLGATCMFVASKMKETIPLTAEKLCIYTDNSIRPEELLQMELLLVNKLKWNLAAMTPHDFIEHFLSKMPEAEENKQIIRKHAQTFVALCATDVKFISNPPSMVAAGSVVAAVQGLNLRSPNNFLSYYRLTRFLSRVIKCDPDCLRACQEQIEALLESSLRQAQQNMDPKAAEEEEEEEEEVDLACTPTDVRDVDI
Outline: as §3

Sequence of PLK-1 (P53350 whole entry, species assumed): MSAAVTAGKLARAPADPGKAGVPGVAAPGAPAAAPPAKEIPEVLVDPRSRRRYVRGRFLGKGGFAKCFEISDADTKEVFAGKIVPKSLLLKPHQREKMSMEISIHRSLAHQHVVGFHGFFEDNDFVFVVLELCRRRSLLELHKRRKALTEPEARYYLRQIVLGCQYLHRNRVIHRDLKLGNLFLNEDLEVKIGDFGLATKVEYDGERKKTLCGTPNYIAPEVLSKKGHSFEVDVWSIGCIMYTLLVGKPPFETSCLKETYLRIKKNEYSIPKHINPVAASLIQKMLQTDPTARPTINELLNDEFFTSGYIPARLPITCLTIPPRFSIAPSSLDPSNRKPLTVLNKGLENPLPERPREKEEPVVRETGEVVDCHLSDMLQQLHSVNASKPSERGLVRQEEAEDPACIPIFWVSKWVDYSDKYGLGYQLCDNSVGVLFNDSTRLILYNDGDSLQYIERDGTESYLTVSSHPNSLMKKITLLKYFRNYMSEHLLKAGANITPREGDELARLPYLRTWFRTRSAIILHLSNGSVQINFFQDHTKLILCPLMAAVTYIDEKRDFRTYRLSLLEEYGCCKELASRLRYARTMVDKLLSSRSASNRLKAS

Compound | IC50 (PLK-1) [nM] | IC50 (CDK2/cyclin E) [nM] | IC50 (CDK1/cyclin B) [nM] | IC50 (CDK9/cyclin T1) [nM] | IC50 (CDK7/cyclin H) [nM] | IC50 (CDK2/cyclin A) [nM] | IC50 (Aurora-A) [nM] | IC50 (GSK3β) [nM] | IC50 (CDK4/cyclin D1) [nM] | IC50 (Saos-2) [nM] | IC50 (HT29) [nM] | IC50 [1] [nM] | IC50 (A549) [nM]
O=[N+]([O-])c1ccc(Nc2nccc(-c3cccc([N+](=O)[O-])c3)n2)cc1 [Compound 2, (4-Nitro-phenyl)-[4-(3-nitro-phenyl)-pyrimidin-2-yl]-amine] | 6500 | – | – | – | – | – | – | – | – | – | – | – | –
CC(=O)Nc1cccc(-c2ccnc(Nc3ccc(O)cc3)n2)c1 [Compound 11, N-{3-[2-(4-Hydroxy-phenylamino)-pyrimidin-4-yl]-phenyl}-acetamide] | 6900 | 250 | – | – | – | – | – | – | – | 7100 | 7500 | 7600 ± 600 | 8300
CC(=O)N(CC(C)C)c1cccc(-c2ccnc(Nc3ccc(O)cc3)n2)c1 [Compound 13, N-{3-[2-(4-Hydroxy-phenylamino)-pyrimidin-4-yl]-phenyl}-N-isobutyl-acetamide] | 14500 | 550 | – | – | – | – | – | – | – | – | – | – | –
Nc1cccc(-c2ccnc(Nc3ccc(O)cc3)n2)c1 [Compound 15, 4-[4-(3-Amino-phenyl)-pyrimidin-2-ylamino]-phenol] | 7800 | 360 | – | – | – | – | – | – | – | – | – | – | –
Clc1ccc(Nc2nccc(-c3cccc(Cl)c3)n2)cc1 [Compound 16, (4-Chloro-phenyl)-[4-(3-chloro-phenyl)-pyrimidin-2-yl]-amine] | 8700 | – | – | – | – | – | – | – | – | – | – | – | –
CN(C)Cc1cccc(-c2ccnc(Nc3ccc(N4CCOCC4)cc3)n2)c1 [Compound 82, [4-(3-Dimethylaminomethyl-phenyl)-pyrimidin-2-yl]-(4-morpholin-4-yl-phenyl)-amine] | – | 660 | 1100 | 330 | 2900 | 1500 | 400 | 2300 | 4600 | 6600 | 4500 | 5800 ± 1100 | 6200
NC(=O)C1CCCN(Cc2cccc(-c3ccnc(Nc4cccc([N+](=O)[O-])c4)n3)c2)C1 (centres unmarked) [Compound 99, 1-{3-[2-(3-Nitro-phenylamino)-pyrimidin-4-yl]-benzyl}-piperidine-3-carboxylic acid amide] | – | 200 | 1200 | 1 | 180 | 1700 | 1000 | 40 | 3800 | 4100 | 2600 | 3200 ± 800 | 3000
CN(c1cccc(-c2ccnc(Nc3cccc(O)c3)n2)c1)S(C)(=O)=O [Compound 130, N-{3-[2-(3-Hydroxy-phenylamino)-pyrimidin-4-yl]-phenyl}-N-methyl-methanesulfonamide] | – | 220 | 960 | 4 | 1300 | 620 | 120 | 50 | 1300 | – | – | – | –

Continued, in another order:

IC50 (PLK-1) [nM] | IC50 (CDK2/cyclin E) [nM] | IC50 (CDK1/cyclin B) [nM] | IC50 (CDK9/cyclin T1) [nM] | IC50 (CDK7/cyclin H) [nM] | IC50 (CDK2/cyclin A) [nM] | IC50 (Aurora-A) [nM] | IC50 (GSK3β) [nM] | IC50 (CDK4/cyclin D1) [nM] | Compound | IC50 (Saos-2) [nM] | IC50 (HT29) [nM] | IC50 [1] [nM] | IC50 (A549) [nM]
4800 | 160 | – | – | – | – | – | – | – | CCN(C(C)=O)c1cccc(-c2ccnc(Nc3ccc(O)cc3)n2)c1 [Compound 10, N-Ethyl-N-{3-[2-(4-hydroxy-phenylamino)-pyrimidin-4-yl]-phenyl}-acetamide] | 5400 | 9700 | 7700 ± 2200 | 8000
13700 | 45 | – | – | – | – | – | – | – | CNc1cccc(-c2ccnc(Nc3ccc(O)cc3)n2)c1 [Compound 14, 4-[4-(3-Methylamino-phenyl)-pyrimidin-2-ylamino]-phenol] | – | – | – | –
– | 60 | 20 | 4 | 90 | 20 | 570 | 20 | 3200 | CCN(CC)Cc1cccc(-c2ccnc(Nc3cccc([N+](=O)[O-])c3)n2)c1 [Compound 84, [4-(3-Diethylaminomethyl-phenyl)-pyrimidin-2-yl]-(3-nitro-phenyl)-amine] | – | – | – | –
– | 60 | 590 | 0.1 | 550 | 470 | 160 | 0.7 | 870 | O=[N+]([O-])c1cccc(Nc2nccc(-c3cccc(CO)c3)n2)c1 [Compound 91, {3-[2-(3-Nitro-phenylamino)-pyrimidin-4-yl]-phenyl}-methanol] | – | – | – | –
– | 70 | 1200 | 10 | 80 | 350 | 2600 | 10 | 1900 | O=[N+]([O-])c1cccc(Nc2nccc(-c3cccc(CN4CCCC(CO)C4)c3)n2)c1 (centres unmarked) [Compound 105, (1-{3-[2-(3-Nitro-phenylamino)-pyrimidin-4-yl]-benzyl}-piperidin-3-yl)-methanol] | – | – | – | –
– | 70 | 830 | 20 | 650 | 440 | 270 | 130 | 2600 | CN(c1cccc(-c2ccnc(Nc3cccc([N+](=O)[O-])c3)n2)c1)S(C)(=O)=O [Compound 129, N-Methyl-N-{3-[2-(3-nitro-phenylamino)-pyrimidin-4-yl]-phenyl}-methanesulfonamide] | – | – | – | –
– | 180 | 2100 | 10 | 1400 | 450 | 140 | 130 | 2500 | CN(c1cccc(-c2ccnc(Nc3ccc(O)cc3)n2)c1)S(C)(=O)=O [Compound 131, N-{3-[2-(4-Hydroxy-phenylamino)-pyrimidin-4-yl]-phenyl}-N-methyl-methanesulfonamide] | – | – | – | –
